According to patent publication US11932639B2, “Fused ring heteroaryl compounds as ALK4/5 inhibitors” (BiSiChem Co., Ltd., priority 2019, dated 2024):

The compounds below were run against T1, ALK5 (Homo sapiens, UniProt P36897) (assay: Cell-based luciferase reporter assay for ALK5 activity). Settings: (CAGA)-12-luciferase reporter, Smad 2/3-responsive promoter, 2 ng/ml TGF-β1 stimulation for 12 hours; read-out: Relative luciferase activity: IC50 value.
T1 construct: endogenous in cells; host or cells: Hs578T (ATCC HTB-22), inferred as the cells of the reporter assay
T1 sequence (P36897 34-503): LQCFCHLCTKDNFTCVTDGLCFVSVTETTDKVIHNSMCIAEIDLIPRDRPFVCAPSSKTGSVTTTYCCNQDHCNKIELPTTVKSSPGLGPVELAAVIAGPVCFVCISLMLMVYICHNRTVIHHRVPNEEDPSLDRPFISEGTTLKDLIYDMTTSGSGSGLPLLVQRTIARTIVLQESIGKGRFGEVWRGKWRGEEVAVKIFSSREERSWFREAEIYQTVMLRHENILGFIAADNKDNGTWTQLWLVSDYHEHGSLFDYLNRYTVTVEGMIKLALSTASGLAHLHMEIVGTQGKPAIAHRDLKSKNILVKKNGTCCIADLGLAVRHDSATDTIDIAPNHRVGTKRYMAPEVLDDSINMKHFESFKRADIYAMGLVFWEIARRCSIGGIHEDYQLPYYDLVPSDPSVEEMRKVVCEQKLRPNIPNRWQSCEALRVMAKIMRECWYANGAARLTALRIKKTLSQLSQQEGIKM
Procedure: Human cancer cell lines Hs578T (ATCC® HTB-22™) cells were grown in DMEM (Dulbecco's modified Eagle's medium) supplemented with 10% fetal bovine serum and 1% mixture of penicillin and streptomycin (Gibco). Cells were maintained at 37° C. in a humidified 5% CO2 atmosphere.
Cell-Based Luciferase Reporter Assay for ALK5 Activity
Cells were seeded at 3×10^4/well in 24-well plates were transiently transfected with 500 ng of (CAGA)-12-luciferase reporter construct and 5 ng of pRL-TK Renilla luciferase vector (Promega, Madison, WI), an internal control for transfection efficiency, using Lipofectamine 3000 reagent (Thermo Fisher Scientific, Waltham, USA). After 24 h transfection, the cells were pre-treated with ALK5 inhibitor in dose-dependent manner. And then, Cells stimulated with 2 ng/ml recombinant TGF-β1 for 12 hours. After the stimulation, the firefly and Renilla luciferase activities were measured by Dual-Luciferase Repoter Assay (Promega).

Row | Structure (SMILES) | IC50 [nM]
1 | Cc1cccc(-c2[nH]c(CNc3cccc(Cl)c3F)nc2-c2ccn3nccc3c2)n1 [Example 1, 3-chloro-2-fluoro-N-((5-(6-methylpyridin-2-yl)-4-(pyrazolo[1,5-a]pyridin-5-yl)-1H-imidazol-2-yl)methyl)aniline] | 10 to 100
2 | Cc1cccc(-c2[nH]c(CNc3ccc(Cl)c(Cl)c3)nc2-c2ccn3nccc3c2)n1 [Example 2, 3,4-dichloro-N-((5-(6-methylpyridin-2-yl)-4-(pyrazolo[1,5-a]pyridin-5-yl)-1H-imidazol-2-yl)methyl)aniline] | < 10
3 | Cc1cccc(-c2[nH]c(CNc3ccccc3F)nc2-c2ccn3ncnc3c2)n1 [Example 3, N-((4-([1,2,4]triazolo[1,5-a]pyridin-7-yl)-5-(6-methylpyridin-2-yl)-1H-imidazol-2-yl)methyl)-2-fluoroaniline] | 10 to 100
4 | Cc1cccc(-c2[nH]c(CNc3cccc(Cl)c3F)nc2-c2ccn3ncnc3c2)n1 [Example 4, N-((4-([1,2,4]triazolo[1,5-a]pyridin-7-yl)-5-(6-methylpyridin-2-yl)-1H-imidazol-2-yl)methyl)-3-chloro-2-fluoroaniline] | < 10
5 | Cc1cccc(-c2[nH]c(CNc3ccc(Cl)c(Cl)c3)nc2-c2ccn3ncnc3c2)n1 [Example 5, N-((4-([1,2,4]triazolo[1,5-a]pyridin-7-yl)-5-(6-methylpyridin-2-yl)-1H-imidazol-2-yl)methyl)-3,4-dichloroaniline] | < 10
6 | Cc1cccc(-c2[nH]c(NCc3ccccc3F)nc2-c2ccn3nccc3c2)n1 [Example 6, N-(2-fluorobenzyl)-5-(6-methylpyridin-2-yl)-4-(pyrazolo[1,5-a]pyridine-5-yl)-1H-imidazol-2-amine] | 10 to 100
7 | Cc1cccc(-c2[nH]c(NCc3cccc(F)c3)nc2-c2ccn3nccc3c2)n1 [Example 7, N-(3-fluorobenzyl)-5-(6-methylpyridin-2-yl)-4-(pyrazolo[1,5-a]pyridine-5-yl)-1H-imidazol-2-amine] | 10 to 100
8 | Cc1cccc(-c2[nH]c(NCc3cccc(Cl)c3F)nc2-c2ccn3nccc3c2)n1 [Example 8, N-(3-chloro-2-fluorobenzyl)-5-(6-methylpyridin-2-yl)-4-(pyrazolo[1,5-a]pyridin-5-yl)-1H-imidazol-2-amine] | 10 to 100
9 | Cc1cccc(-c2[nH]c(NCc3ccc(Cl)cc3F)nc2-c2ccn3nccc3c2)n1 [Example 9, N-(4-chloro-2-fluorobenzyl)-5-(6-methylpyridin-2-yl)-4-(pyrazolo[1,5-a]pyridin-5-yl)-1H-imidazol-2-amine] | < 10
10 | Cc1cccc(-c2[nH]c(NCc3ccc(Cl)c(Cl)c3)nc2-c2ccn3nccc3c2)n1 [Example 10, N-(3,4-dichlorobenzyl)-5-(6-methylpyridin-2-yl)-4-(pyrazolo[1,5-a]pyridin-5-yl)-1H-imidazol-2-amine] | 10 to 100
11 | Cc1cccc(-c2[nH]c(NCc3ccccc3F)nc2-c2ccn3ncnc3c2)n1 [Example 11, 4-([1,2,4]triazolo[1,5-a]pyridin-7-yl)-N-(2-fluorobenzyl)-5-(6-methylpyridin-2-yl)-1H-imidazol-2-amine] | 10 to 100
12 | Cc1cccc(-c2[nH]c(NCc3cccc(F)c3)nc2-c2ccn3ncnc3c2)n1 [Example 12, 4-([1,2,4]triazolo[1,5-a]pyridin-7-yl)-N-(3-fluorobenzyl)-5-(6-methylpyridin-2-yl)-1H-imidazol-2ylamine] | 10 to 100
13 | Cc1cccc(-c2[nH]c(NCc3cccc(Cl)c3)nc2-c2ccn3ncnc3c2)n1 [Example 13, 4-([1,2,4]triazolo[1,5-a]pyridin-7-yl)-N-(3-chlorobenzyl)-5-(6-methylpyridin-2-yl)-1H-imidazol-2-amine] | 10 to 100
14 | Cc1cccc(-c2[nH]c(NCc3ccc(Cl)cc3)nc2-c2ccn3ncnc3c2)n1 [Example 14, 4-([1,2,4]triazolo[1,5-a]pyridin-7-yl)-N-(4-chlorobenzyl)-5-(6-methylpyridin-2-yl)-1H-imidazol-2-amine] | < 10
15 | Cc1cccc(-c2[nH]c(NCc3cccc(F)c3F)nc2-c2ccn3ncnc3c2)n1 [Example 15, 4-([1,2,4]triazolo[1,5-a]pyridin-7-yl)-N-(2,3-difluorobenzyl)-5-(6-methylpyridin-2-yl)-1-imidazol-2-ylamine] | 10 to 100
16 | Cc1cccc(-c2[nH]c(NCc3c(F)cccc3F)nc2-c2ccn3ncnc3c2)n1 [Example 16, 4-([1,2,4]triazolo[1,5-a]pyridin-7-yl)-N-(2,6-difluorobenzyl)-5-(6-methylpyridin-2-yl)-1H-imidazol-2-amine] | 10 to 100
17 | Cc1cccc(-c2[nH]c(NCc3ccc(Cl)cc3F)nc2-c2ccn3ncnc3c2)n1 [Example 17, 4-([1,2,4]triazolo[1,5-a]pyridin-7-yl)-N-(4-chloro-2-fluorobenzyl)-5-(6-methylpyridin-2-yl)-1H-imidazol-2-amine] | 10 to 100
18 | Cc1cccc(-c2[nH]c(NCc3cccc(Cl)c3F)nc2-c2ccn3ncnc3c2)n1 [Example 18, 4-([1,2,4]triazolo[1,5-a]pyridin-7-yl)-N-(3-chloro-2-fluorobenzyl)-5-(6-methylpyridin-2-yl)-1H-imidazol-2-amine] | < 10
19 | Cc1cccc(-c2[nH]c(NCc3cc(Cl)ccc3F)nc2-c2ccn3ncnc3c2)n1 [Example 19, 4-([1,2,4]triazolo[1,5-a]pyridin-7-yl)-N-(5-chloro-2-fluorobenzyl)-5-(6-methylpyridin-2-yl)-1H-imidazol-2-amine] | 10 to 100
20 | Cc1cccc(-c2[nH]c(NCc3ccc(Cl)c(Cl)c3)nc2-c2ccn3ncnc3c2)n1 [Example 20, 4-([1,2,4]triazolo[1,5-a]pyridin-7-yl)-N-(3,4-dichlorobenzyl)-5-(6-methylpyridin-2-yl)-1H-imidazol-2-amine] | < 10
21 | Cc1cccc(-c2[nH]c(NCc3ccc(Cl)cc3Cl)nc2-c2ccn3ncnc3c2)n1 [Example 21, 4-([1,2,4]triazolo[1,5-a]pyridin-7-yl)-N-(2,4-dichlorobenzyl)-5-(6-methylpyridin-2-yl)-1H-imidazol-2-amine] | 10 to 100
22 | COc1cccc(CNc2nc(-c3ccn4ncnc4c3)c(-c3cccc(C)n3)[nH]2)c1F [Example 22, 4-([1,2,4]triazolo[1,5-a]pyridin-7-yl)-N-(2-fluoro-3-methoxybenzyl)-5-(6-methylpyridin-2-yl)-1H-imidazol-2-amine] | 10 to 100
23 | COc1ccc(CNc2nc(-c3ccn4ncnc4c3)c(-c3cccc(C)n3)[nH]2)c(F)c1 [Example 23, 4-([1,2,4]triazolo[1,5-a]pyridin-7-yl)-N-(2-fluoro-4-methoxybenzyl)-5-(6-methylpyridin-2-yl)-1H-imidazol-2-amine] | 10 to 100
24 | CNC(=O)c1cccc(CNc2nc(-c3ccn4ncnc4c3)c(-c3cccc(C)n3)[nH]2)c1 [Example 24, 3-((4-([1,2,4]triazolo[1,5-a]pyridin-7-yl)-5-(6-methylpyridin-2-yl)-1H-imidazol-2ylamino)methyl)-N-methylbenzamide] | > 100
25 | CNC(=O)c1ccc(CNc2nc(-c3ccn4ncnc4c3)c(-c3cccc(C)n3)[nH]2)cc1 [Example 25, 4-((4-([1,2,4]triazolo[1,5-a]pyridin-7-yl)-5-(6-methylpyridin-2-yl)-1H-imidazol-2-ylamino)methyl)-N-methylbenzamide] | > 100
26 | Cc1cccc(-c2[nH]c(NC(=O)c3ccccc3F)nc2-c2ccn3ncnc3c2)n1 [Example 26, N-(4-([1,2,4]triazolo[1,5-a]pyridin-7-yl)-5-(6-methylpyridin-2-yl)-1H-imidazol-2-yl)-2-fluorobenzamide] | 10 to 100
27 | Cc1cccc(-c2[nH]c(NC(C)c3ccccc3F)nc2-c2ccn3ncnc3c2)n1 (stereo not drawn) [Example 27, 4-([1,2,4]tiazolo[1,5-a]pyridin-7-yl)-N-(1-(2-fluorophenyl)ethyl)-5-(6-methylpyridin-2-yl)-1H-imidazol-2-amine] | 10 to 100
